# Results published in paper doi:10.1101/2021.10.07.463234v2 (biorxiv, 2021).
# Counter-ions that a name gives are not always drawn.
# Target: SARS-CoV-2 Mac1 (Severe acute respiratory syndrome coronavirus 2, UniProt P0DTD1)
# Assay: biochemical
# Details: 100 µM; inhibitor
row,SMILES,%inhibition
1,O=C1O[C@H]([C@@H](O)CO)C(O)=C1O [Sodium ascorbate],0%
2,O=C(O)c1ccccc1 [Sodium benzoate],0%
3,O=C(O)c1ccccc1O [Sodium salicylate],0%
4,Nc1ccc(S(=O)(=O)Nc2ncccn2)cc1 [Sodium sulfadiazine],0%
5,CNC(=O)c1cc(Oc2ccc(NC(=O)Nc3ccc(Cl)c(C(F)(F)F)c3)cc2)ccn1 [Sorafenib Tosylate],10.76%
6,CC1(C)[C@H](C(=O)O)N2C(=O)C[C@H]2S1(=O)=O [Sulbactam],20.75%
7,CC(=O)NS(=O)(=O)c1ccc(N)cc1 [Sulfacetamide Sodium],3.132%
8,CC(=O)NS(=O)(=O)c1ccc(N)cc1 [Sulfacetamide sodium salt hydrate],8.356%
9,CC(=O)NS(=O)(=O)c1ccc(N)cc1 [Sulfacetamide],27.01%
10,Nc1ccc(S(=O)(=O)Nc2ncccn2)cc1 [Sulfadiazine],29.9%
11,Cc1cc(C)nc(NS(=O)(=O)c2ccc(N)cc2)n1 [Sulfamethazine Sodium Salt],12.6%
12,Cc1cc(C)nc(NS(=O)(=O)c2ccc(N)cc2)n1 [Sulfamethazine],0%
13,Cc1cc(NS(=O)(=O)c2ccc(N)cc2)no1 [Sulfamethoxazole sodium],0%
14,Cc1cc(NS(=O)(=O)c2ccc(N)cc2)no1 [Sulfamethoxazole],24.84%
15,CCN(CC)CCNC(=O)c1c(C)[nH]c(/C=C2\C(=O)Nc3ccc(F)cc32)c1C [Sunitinib],31.86%
16,Nc1c2c(nc3ccccc13)CCCC2 [Tacrine HCl],0.07061%
17,Nc1c2c(nc3ccccc13)CCCC2 [Tacrine hydrochloride hydrate],12.09%

# Same assay, conditions: read-out: %inhibition
row,SMILES,inhibition at 100 µM
1,Nc1ccc(C(=O)O)c(O)c1 [Sodium 4-Aminosalicylate],0%
2,Nc1ccc(C(=O)NCC(=O)O)cc1 [Sodium 4-aminohippurate Hydrate],0%
3,O=C(O)[C@H]1O[C@H](O)[C@H](O)[C@@H](O)[C@@H]1O [Sodium Gluconate],0%
4,O=C(O)CCCc1ccccc1 [Sodium Phenylbutyrate],6.6%
5,O=S(=O)(O)Oc1ccc(C(c2ccc(OS(=O)(=O)O)cc2)c2ccccn2)cc1 [Sodium Picosulfate],1.51%
6,CCCC(=O)O [Sodium butyrate],0%
7,O=C(O)O [Sodium carbonate],0.406%
8,Cc1cc(S(=O)(=O)O)c2c(C)ccc(C(C)C)cc1-2 [Sodium gualenate],12.6%
9,O=C(O)CCC(=O)O [Sodium succinate],0%
10,CC(C)=CCOc1ccc(/C=C/C(=O)c2ccc(OCC=C(C)C)cc2OCC(=O)O)cc1 [Sofalcone],14.1%
11,"CC(C)OC(=O)[C@H](C)N[P@](=O)(OC[C@H]1O[C@@H](n2ccc(=O)[nH]c2=O)[C@](C)(F)[C@@H]1O)Oc1ccccc1 [Sofosbuvir (PSI-7977, GS-7977)]",42.9%
12,"Cc1c(C(=O)Nc2ccc(N3C[C@@H](C)O[C@@H](C)C3)nc2)cccc1-c1ccc(OC(F)(F)F)cc1 [Sonidegib (Erismodegib, NVP-LDE225)]",0%
13,CNC(=O)c1cc(Oc2ccc(NC(=O)Nc3ccc(Cl)c(C(F)(F)F)c3)cc2)ccn1 [Sorafenib],15.7%
14,OC[C@@H](O)[C@@H](O)[C@H](O)[C@@H](O)CO [Sorbitol],0%
15,CCOc1ccc(Cc2cc([C@@H]3O[C@H](SC)[C@@H](O)[C@H](O)[C@H]3O)ccc2Cl)cc1 [Sotagliflozin (LX4211)],0%
16,CC(C)NCC(O)c1ccc(NS(C)(=O)=O)cc1 (stereo not drawn) [Sotalol HCl],0%
17,CN1CCN(c2nc(C3=C(c4c[nH]c5ccccc45)C(=O)NC3=O)c3ccccc3n2)CC1 [Sotrastaurin],34.7%
18,C[C@@H]1CN(c2c(F)c(N)c3c(=O)c(C(=O)O)cn(C4CC4)c3c2F)C[C@H](C)N1 [Sparfloxacin],25.5%
19,CN[C@@H]1[C@H](O)[C@H](NC)[C@H]2O[C@@]3(O)C(=O)C[C@@H](C)O[C@H]3O[C@@H]2[C@H]1O [Spectinomycin 2HCl],11.7%
20,CC(=O)S[C@@H]1CC2=CC(=O)CC[C@]2(C)[C@H]2CC[C@@]3(C)[C@@H](CC[C@@]34CCC(=O)O4)[C@H]12 [Spironolactone],6.62%
21,Cc1cn([C@H]2C=C[C@@H](CO)O2)c(=O)[nH]c1=O [Stavudine (d4T)],0%
22,CCCCCCCCCCCCCCCCCC(=O)O [Stearic acid],6.72%

row,SMILES,inhibition at 100 µM
1,CC(C)(C)C(O)/C=C/c1ccc2c(c1)OCO2 (stereo not drawn) [Stiripentol],12.5%
2,CN[C@@H]1[C@H](O[C@H]2[C@H](O[C@H]3[C@H](O)[C@@H](O)[C@H](N=C(N)N)[C@@H](O)[C@@H]3N=C(N)N)O[C@@H](C)[C@]2(O)C=O)O[C@@H](CO)[C@H](O)[C@H]1O [Streptomycin sulfate],0%
3,C[N+](C)(C)CCOC(=O)CCC(=O)OCC[N+](C)(C)C [Succinylcholine Chloride Dihydrate],0%
4,O=C(O)CCC(=O)Nc1ccc(S(=O)(=O)Nc2nccs2)cc1 [Succinylsulfathiazole],0%
5,CC1(C)[C@H](C(=O)O)N2C(=O)C[C@H]2S1(=O)=O [Sulbactam sodium],16.4%
6,Nc1ccc(S(=O)(=O)NC(=O)c2ccccc2)cc1 [Sulfabenzamide],0%
7,COc1ncnc(NS(=O)(=O)c2ccc(N)cc2)c1OC [Sulfadoxine],0%
8,N=C(N)NS(=O)(=O)c1ccc(N)cc1 [Sulfaguanidine],8.72%
9,COc1nccnc1NS(=O)(=O)c1ccc(N)cc1 [Sulfalene(SMPZ)],5.42%
10,Nc1ccc(S(=O)(=O)Nc2cncc(Cl)n2)cc1 [Sulfalozine sodium],0%
11,Cc1ccnc(NS(=O)(=O)c2ccc(N)cc2)n1 [Sulfamerazine],0%
12,COc1cnc(NS(=O)(=O)c2ccc(N)cc2)nc1 [Sulfameter],0%
13,Cc1nnc(NS(=O)(=O)c2ccc(N)cc2)s1 [Sulfamethizole],15.9%
14,COc1ccc(NS(=O)(=O)c2ccc(N)cc2)nn1 [Sulfamethoxypyridazine],4.31%
15,Nc1ccc(S(N)(=O)=O)cc1 [Sulfanilamide],19.9%
16,Nc1ccc(S(=O)(=O)Nc2ccnn2-c2ccccc2)cc1 [Sulfaphenazole],0%
17,Nc1ccc(S(=O)(=O)Nc2ccccn2)cc1 [Sulfapyridine],10.7%
18,O=C(O)c1cc(/N=N/c2ccc(S(=O)(=O)Nc3ccccn3)cc2)ccc1O [Sulfasalazine],0%
19,Nc1ccc(S(=O)(=O)Nc2nccs2)cc1 [Sulfathiazole],5.37%
20,Cc1noc(NS(=O)(=O)c2ccc(N)cc2)c1C [Sulfisoxazole],20.4%
21,COc1cc(S(=O)(=O)O)ccc1O [Sulfogaiacol],0%
22,CC1=C(CC(=O)O)c2cc(F)ccc2/C1=C\c1ccc([S+](C)[O-])cc1 (stereo not drawn) [Sulindac],4.16%

row,SMILES,inhibition at 100 µM
1,COc1cc(O)c(C(=O)c2ccccc2)cc1S(=O)(=O)O [Sulisobenzone],4.13%
2,COc1cc(NS(=O)(=O)c2ccc(N)cc2)nc(OC)n1 [Sulphadimethoxine],0%
3,CCN1CCCC1CNC(=O)c1cc(S(N)(=O)=O)ccc1OC (stereo not drawn) [Sulpiride],0%
4,CC1(C)S[C@@H]2[C@H](NC(=O)[C@H](N)c3ccccc3)C(=O)N2[C@H]1C(=O)OCOC(=O)[C@@H]1N2C(=O)C[C@H]2S(=O)(=O)C1(C)C [Sultamicillin],8.63%
5,CCN(CC)CCNC(=O)c1c(C)[nH]c(/C=C2\C(=O)Nc3ccc(F)cc32)c1C [Sunitinib Malate],16.2%
6,CC(C(=O)O)c1ccc(C(=O)c2cccs2)cc1 (stereo not drawn) [Suprofen],18%
7,CNC(=O)c1ccc2cc([C@@]3(O)CCn4cncc43)ccc2c1 [TAK-700 (Orteronel)],0%
8,C=CC[C@@H]1/C=C(\C)C[C@H](C)C[C@H](OC)[C@H]2O[C@@](O)(C(=O)C(=O)N3CCCC[C@H]3C(=O)O[C@H](/C(C)=C/[C@@H]3CC[C@@H](O)[C@H](OC)C3)[C@H](C)[C@@H](O)CC1=O)[C@H](C)C[C@@H]2OC [Tacrolimus (FK506)],29.6%
9,CN1CC(=O)N2[C@H](c3ccc4c(c3)OCO4)c3[nH]c4ccccc4c3C[C@@H]2C1=O [Tadalafil],20.7%
10,CC(C)OC(=O)CCC/C=C\C[C@@H]1[C@@H](/C=C/C(F)(F)COc2ccccc2)[C@H](O)C[C@@H]1O [Tafluprost],4.8%
11,CC1(C)CCC(C)(C)c2cc(NC(=O)c3ccc(C(=O)O)cc3)ccc21 [Tamibarotene],1.99%
12,CCOc1ccccc1OCCN[C@H](C)Cc1ccc(OC)c(S(N)(=O)=O)c1 [Tamsulosin hydrochloride],0%
13,C=CCNC1=C2C[C@@H](C)C[C@H](OC)[C@H](O)[C@@H](C)/C=C(\C)[C@H](OC(N)=O)[C@@H](OC)/C=C\C=C(/C)C(=O)NC(=CC1=O)C2=O [Tanespimycin (17-AAG)],3.81%
14,CCC(=O)NC[C@@H]1C[C@H]1c1cccc2c1CCO2 [Tasimelteon],0%
15,O=C(NS(=O)(=O)c1ccc(Br)s1)c1ccc(Cl)cc1Cl [Tasisulam],0%
16,NCCS(=O)(=O)O [Taurine],0%
17,OB1OCc2cc(F)ccc21 [Tavaborole (AN-2690)],0.84%
18,CCOC(=O)c1ccc(C#Cc2ccc3c(c2)C(C)(C)CCS3)nc1 [Tazarotene],0%
19,C[C@]1(Cn2ccnn2)[C@H](C(=O)O)N2C(=O)C[C@H]2S1(=O)=O [Tazobactam],6.81%
20,C[C@@H](O)[C@H]1C(=O)N2C(C(=O)OCOC(=O)C(C)(C)C)=C(SC3CN(C4=NCCS4)C3)[C@H](C)[C@H]12 [Tebipenem Pivoxil],1.32%
